Active and inactive are the calls of the source. The rule behind the calls is not given here.
How the values were obtained:
[1] = target: T1, Acetylcholinesterase (Torpedo californica, UniProt P04058)
Description: Inhibition of Pacific electric ray AChE using acetylthiocholine iodide as substrate after 60 mins by Ellman's method

[2] = target: Cholinesterase (Equus caballus) (UniProt P81908); test: Inhibition of BChE in horse serum using butyrylthiocholine iodide as substrate at 200 uM after 120 mins by Ellman's method relative to control
[3] = target: Acetylcholinesterase (Torpedo californica) (UniProt P04058); test: Inhibition of Pacific electric ray AChE using acetylthiocholine iodide as substrate at 200 uM after 60 mins by Ellman's method relative to control; details: Tetronarce californica
Sequence of Acetylcholinesterase (Torpedo californica) (P04058 22-564 limits assumed): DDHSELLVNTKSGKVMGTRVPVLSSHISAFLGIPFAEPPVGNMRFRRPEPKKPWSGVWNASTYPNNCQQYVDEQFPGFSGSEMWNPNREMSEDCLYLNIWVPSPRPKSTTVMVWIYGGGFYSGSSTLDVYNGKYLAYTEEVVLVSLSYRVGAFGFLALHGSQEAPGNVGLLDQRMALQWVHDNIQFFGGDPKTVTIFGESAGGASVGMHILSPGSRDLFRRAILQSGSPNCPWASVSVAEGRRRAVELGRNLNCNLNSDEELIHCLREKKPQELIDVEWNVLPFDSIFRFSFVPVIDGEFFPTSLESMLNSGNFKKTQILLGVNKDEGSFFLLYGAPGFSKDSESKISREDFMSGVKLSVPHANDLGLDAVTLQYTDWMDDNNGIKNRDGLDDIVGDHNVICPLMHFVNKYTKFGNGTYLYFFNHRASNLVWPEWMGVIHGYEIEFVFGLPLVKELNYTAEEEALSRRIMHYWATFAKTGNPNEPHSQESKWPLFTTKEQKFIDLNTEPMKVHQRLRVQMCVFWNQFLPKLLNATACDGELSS

[4] = target: Cholinesterase (Equus caballus, UniProt P81908)
Sequence of Cholinesterase (P81908 whole entry): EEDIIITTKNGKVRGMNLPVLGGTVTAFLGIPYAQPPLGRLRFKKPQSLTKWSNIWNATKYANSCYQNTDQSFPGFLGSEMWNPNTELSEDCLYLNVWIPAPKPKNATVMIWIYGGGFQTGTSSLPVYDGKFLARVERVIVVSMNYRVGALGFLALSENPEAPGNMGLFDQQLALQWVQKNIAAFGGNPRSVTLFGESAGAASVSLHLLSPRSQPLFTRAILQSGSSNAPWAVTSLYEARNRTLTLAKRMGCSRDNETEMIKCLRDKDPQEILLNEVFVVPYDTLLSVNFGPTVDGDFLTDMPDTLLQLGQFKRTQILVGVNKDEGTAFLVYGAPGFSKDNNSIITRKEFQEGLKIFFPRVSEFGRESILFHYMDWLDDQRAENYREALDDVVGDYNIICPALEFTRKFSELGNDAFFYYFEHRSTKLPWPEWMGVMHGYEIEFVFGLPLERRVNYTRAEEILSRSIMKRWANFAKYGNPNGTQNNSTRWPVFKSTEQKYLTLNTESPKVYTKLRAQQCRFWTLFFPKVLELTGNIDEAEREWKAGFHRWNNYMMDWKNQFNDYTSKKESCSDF
Description: Inhibition of BChE in horse serum using butyrylthiocholine iodide as substrate after 120 mins by Ellman's method

[5] = Selectivity index, ratio of IC50 for Pacific electric ray AChE to IC50 for BChE in horse serum
[6] = target: T1, Acetylcholinesterase; test: Uncompetitive inhibition of Pacific electric ray AChE using acetylthiocholine as substrate by Lineweaver-Burk plot analysis; set-up: species or system Tetronarce californica

Sequence of Cholinesterase (Equus caballus) (P81908 whole entry): as above
T1 sequence (P04058 whole entry): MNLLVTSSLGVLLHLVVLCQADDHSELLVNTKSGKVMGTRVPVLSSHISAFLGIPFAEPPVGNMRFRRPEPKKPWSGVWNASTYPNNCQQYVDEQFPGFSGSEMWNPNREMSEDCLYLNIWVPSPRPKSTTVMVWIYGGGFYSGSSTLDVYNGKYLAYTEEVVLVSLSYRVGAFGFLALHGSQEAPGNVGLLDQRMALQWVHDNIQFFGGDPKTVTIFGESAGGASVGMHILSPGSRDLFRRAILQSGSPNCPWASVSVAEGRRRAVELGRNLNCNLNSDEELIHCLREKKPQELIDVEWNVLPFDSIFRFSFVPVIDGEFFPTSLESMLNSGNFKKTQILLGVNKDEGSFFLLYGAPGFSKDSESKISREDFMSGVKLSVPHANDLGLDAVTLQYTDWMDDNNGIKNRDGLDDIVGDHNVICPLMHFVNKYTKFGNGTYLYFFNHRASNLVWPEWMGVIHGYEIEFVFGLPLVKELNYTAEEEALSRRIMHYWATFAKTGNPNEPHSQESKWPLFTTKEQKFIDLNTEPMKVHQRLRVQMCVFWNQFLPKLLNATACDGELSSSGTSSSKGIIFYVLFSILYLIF

| SMILES | IC50 [1] [µM] | inhibition [2] [%] | inhibition [3] | IC50 [4] [µM] | Ratio IC50 [5] | Ki [6] [µM] |
| --- | --- | --- | --- | --- | --- | --- |
| CC1(C)[C@@H](O)CC[C@]2(C)[C@H]3CC[C@@H]4[C@H]5[C@H]([C@@]6(C)CO6)CC[C@]5(C)[C@@H](O)C[C@@]4(C)[C@]3(C)CC[C@@H]12 | > 200 | 19.4 | 24.3% |  |  |  |
| C=C(C)[C@@H]1CC[C@@]2(C)[C@H]1[C@H]1CC[C@@H]3[C@@]4(C)CC[C@H](OC(C)=O)C(C)(C)[C@@H]4CC[C@@]3(C)[C@]1(C)C[C@@H]2O |  | 46.2 | 1.9% | > 200 |  |  |
| C=C(C=O)[C@@H]1CC[C@@]2(C)[C@H]1[C@H]1CC[C@@H]3[C@@]4(C)CC[C@H](OS(=O)(=O)O)C(C)(C)[C@@H]4CC[C@@]3(C)[C@]1(C)C[C@@H]2OS(=O)(=O)O |  | 18.4 | 6.1% |  |  |  |
| C=C(C)[C@@H]1CC[C@@]2(C)[C@H]1[C@H]1CC[C@@H]3[C@@]4(C)CC[C@H](OS(=O)(=O)O)C(C)(C)[C@@H]4CC[C@@]3(C)[C@]1(C)C[C@@H]2OS(=O)(=O)O | 190 | 78.5 | 71% | 64.3 | 2.95 |  |
| CC(C)[C@@H]1CC[C@@]2(C)[C@H]1[C@H]1CC[C@@H]3[C@@]4(C)CC[C@H](OS(=O)(=O)O)C(C)(C)[C@@H]4CC[C@@]3(C)[C@]1(C)C[C@@H]2OS(=O)(=O)O | 58.8 | 87.8 | 98.9% | 104 | 0.56 | 144 |
| C=C(CO)[C@@H]1CC[C@@]2(C)[C@H]1[C@H]1CC[C@@H]3[C@@]4(C)CC[C@H](O)C(C)(C)[C@@H]4CC[C@@]3(C)[C@]1(C)C[C@@H]2O | > 200 | 32 | 40.4% |  |  |  |
| C=C(C)[C@@H]1CC[C@@]2(C)[C@H]1[C@H]1CC[C@@H]3[C@@]4(C)CC[C@H](O)C(C)(C)[C@@H]4CC[C@@]3(C)[C@]1(C)C[C@@H]2OC(C)=O |  | 51.2 | 5.6% | > 200 |  |  |
| C=C(C)[C@@H]1CC[C@@]2(C)[C@H]1[C@H]1CC[C@H]3[C@@]4(C)CC[C@H](O)C(C)(C)[C@@H]4CC[C@@]3(C)[C@]1(C)C[C@@H]2O |  | 42 | 8.1% |  |  |  |
| C=C(C)[C@@H]1CC[C@@]2(C)[C@H]1[C@H]1CC[C@@H]3[C@@]4(C)CC[C@H](OC(=O)c5ccccc5)C(C)(C)[C@@H]4CC[C@@]3(C)[C@]1(C)C[C@@H]2OC(=O)c1ccccc1 |  | 39.9 | 3.9% |  |  |  |
| C=C(C)[C@@H]1CC[C@@]2(C)[C@H]1[C@H]1CC[C@@H]3[C@@]4(C)CC[C@H](OC(C)=O)C(C)(C)[C@@H]4CC[C@@]3(C)[C@]1(C)C[C@@H]2OC(C)=O |  | 35.2 | 3.3% |  |  |  |
| C=C(COC(C)=O)[C@@H]1CC[C@@]2(C)[C@H]1[C@H]1CC[C@@H]3[C@@]4(C)CC[C@H](OC(C)=O)C(C)(C)[C@@H]4CC[C@@]3(C)[C@]1(C)C[C@@H]2OC(C)=O |  |  | 7.2% |  |  |  |
| C=C(COS(=O)(=O)O)[C@@H]1CC[C@@]2(C)[C@H]1[C@H]1CC[C@@H]3[C@@]4(C)CC[C@H](OS(=O)(=O)O)C(C)(C)[C@@H]4CC[C@@]3(C)[C@]1(C)C[C@@H]2OS(=O)(=O)O | > 200 | 50.2 | 12.9% | > 200 |  |  |
| CC(C)[C@@H]1CC[C@@]2(C)[C@H]1[C@H]1CC[C@@H]3[C@@]4(C)CC[C@H](O)C(C)(C)[C@@H]4CC[C@@]3(C)[C@]1(C)C[C@@H]2O | > 200 | 14.3 | 24.3% |  |  |  |
| C=C(C=O)[C@@H]1CC[C@]2(C)C(=O)C[C@]3(C)[C@H](CC[C@@H]4[C@@]5(C)CCC(=O)C(C)(C)[C@@H]5CC[C@]43C)[C@@H]12 | > 200 | 86.5 | 21.7% | 21.5 | > 9.3 |  |
| C=C(CO)[C@@H]1CC[C@@]2(C)[C@H]1[C@H]1CC[C@@H]3[C@@]4(C)CC[C@H](OS(=O)(=O)O)C(C)(C)[C@@H]4CC[C@@]3(C)[C@]1(C)C[C@@H]2OS(=O)(=O)O | > 200 | 56.8 | 10.8% | 188 | > 1.7 |  |
| C=CCCC(=O)O[C@H]1CC[C@]2(C)[C@H]3CC[C@@H]4[C@H]5[C@H](C(=C)C)CC[C@]5(C)[C@@H](OC(=O)CCC=C)C[C@@]4(C)[C@]3(C)CC[C@H]2C1(C)C |  | 29.3 | 6.4% |  |  |  |
| C=C(C=O)[C@@H]1CC[C@@]2(C)[C@H]1[C@H]1CC[C@@H]3[C@@]4(C)CC[C@H](O)C(C)(C)[C@@H]4CC[C@@]3(C)[C@]1(C)C[C@@H]2O | > 200 | 42 | 43.5% |  |  |  |
| C=C(C)[C@@H]1CC[C@]2(C)C(=O)C[C@]3(C)[C@H](CC[C@@H]4[C@@]5(C)CCC(=O)C(C)(C)[C@@H]5CC[C@]43C)[C@@H]12 |  | 33.4 | 6.4% |  |  |  |
| C=C(C)[C@@H]1CC[C@@]2(C)[C@H]1[C@H]1CC[C@@H]3[C@@]4(C)CC[C@H](OC(=O)c5ccc(Br)cc5)C(C)(C)[C@@H]4CC[C@@]3(C)[C@]1(C)C[C@@H]2OC(=O)c1ccc(Br)cc1 |  | 18.4 | inactive |  |  |  |
| C=C(C)[C@@H]1CC[C@@]2(C)[C@H]1[C@H]1CCC3[C@@]4(C)CC[C@H](O)C(C)(C)[C@@H]4CC[C@@]3(C)[C@]1(C)C[C@@H]2O (some centres not stated) [CALENDULADIOL] | > 200 |  |  | > 200 |  |  |
| CC1(C)[C@@H](OS(=O)(=O)O)CC[C@]2(C)[C@H]3CC[C@@H]4[C@H]5[C@H]([C@@]6(C)CO6)CC[C@]5(C)[C@@H](OS(=O)(=O)O)C[C@@]4(C)[C@]3(C)CC[C@@H]12 | > 200 | 43.7 | 13.7% | > 200 |  |  |
| C=C(C)[C@@H]1CC[C@@]2(C)[C@H]1[C@H]1CC[C@@H]3[C@@]4(C)CC[C@H](OC(=O)CCCCC(=O)O)C(C)(C)[C@@H]4CC[C@@]3(C)[C@]1(C)C[C@@H]2OC(=O)CCCCC(=O)O | > 200 | 89.2 | 20.2% | 80.6 | > 2.48 |  |
| C=C(C=O)[C@@H]1CC[C@@]2(C)[C@H]1[C@H]1CC[C@@H]3[C@@]4(C)CC[C@H](OC(C)=O)C(C)(C)[C@@H]4CC[C@@]3(C)[C@]1(C)C[C@@H]2OC(C)=O |  | 45.8 | 6.8% | > 200 |  |  |

Source: ChEMBL document CHEMBL3286215, “Preparation, anticholinesterase activity and molecular docking of new lupane derivatives” (Bioorg Med Chem, 2014)
